Like-named read-outs stand apart in the source and are kept apart here.
Legend:
[1] = molecular target: T1, human A2A adenosine receptors (Homo sapiens, UniProt P29274); assay: Displacement of [^3H]CGS21680 binding, human A2A adenosine receptors in CHO cells (agonist radioligand)
T1 construct: expressed in transfected cells; host or cells: CHO cells

[2] = molecular target: T2, human A1 receptors (Homo sapiens, UniProt P30542); assay: [^3H] DPCPX binding to human A1 receptors expressed in CHO cells (antagonist radioligand)
T2 construct: expressed in transfected cells; host or cells: CHO cells
T2 sequence (P30542 1-326): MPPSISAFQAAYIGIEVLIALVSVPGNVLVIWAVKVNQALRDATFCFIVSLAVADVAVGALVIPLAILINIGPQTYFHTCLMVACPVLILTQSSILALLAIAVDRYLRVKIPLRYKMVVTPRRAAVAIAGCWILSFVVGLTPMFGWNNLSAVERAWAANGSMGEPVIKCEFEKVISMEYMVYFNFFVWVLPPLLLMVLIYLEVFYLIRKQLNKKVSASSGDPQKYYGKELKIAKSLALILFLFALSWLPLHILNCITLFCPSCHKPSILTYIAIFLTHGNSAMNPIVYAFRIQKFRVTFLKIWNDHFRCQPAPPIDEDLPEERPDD
Description: Binding assay methodology for the human data with antagonist radioligands. […] Arch. […] The cells were grown adherently and maintained in Dulbecco's Modified Eagles Medium with nutrient mixture F12 (DMEM/F12) without nucleosides, containing 10% fetal calf serum, penicillin (100 U/ml), streptomycin (100 μg/ml), L-glutamine (2 mM) and Geneticin (G418, 0.2 mg/ml) at 37° C. in 5% CO2/95% air. Cells were split 2 or 3 times weekly at a ratio between 1:5 and 1:20. For membrane preparation the culture medium was removed and the cells were washed with PBS and scraped off T75 flasks in ice-cold hypotonic buffer (5 mM Tris HCl, 2 mM EDTA, pH 7.4). The cell suspension was homogenized with Polytron and the homogenate was spun for 10 min at 1,000×g. The supernatant was then centrifuged for 30 min at 100,000×g. The membrane pellet was resuspended in 50 mM Tris HCl buffer pH 7.4 (for A3 adenosine receptors: 50 mM Tris HCl, 10 mM MgCl2, 1 mM EDTA) and incubated with 3 UI/ml of Adenosine deaminase for 30 min at 37° C. Then the suspension was frozen at −80° C. HEK 293 cells transfected with the human recombinant A2B adenosine receptor were obtained from Receptor Biology, Inc. (Beltsville, Md., USA).
Displacement experiments were performed for 120 min at 25° C. in 0.2 ml of 50 mM Tris HCl buffer pH 7.4 containing 1 nM [3H]-DPCPX, diluted membranes (50 μg of protein/assay) and at least 6-8 different concentrations of antagonists studied. Non-specific binding was determined in the presence of 10 μM of CHA and this was always ≦10% of the total binding.

[3] = molecular target: T3, human A2A receptors (Homo sapiens, UniProt P29274); assay: [^3H] SCH58261 binding to human A2A receptors expressed in CHO cells (antagonist radioligand)
T3 construct: expressed in transfected cells; host or cells: CHO cells
Description: (§1) Binding assay methodology for the human data with antagonist radioligands. […] Arch. Pharmacol. 357: 1-9, (1998). The cells were grown adherently and maintained in Dulbecco's Modified Eagles Medium with nutrient mixture F12 (DMEM/F12) without nucleosides, containing 10% fetal calf serum, penicillin (100 U/ml), streptomycin (100 μg/ml), L-glutamine (2 mM) and Geneticin (G418, 0.2 mg/ml) at 37° C. in 5% CO2/95% air. Cells were split 2 or 3 times weekly at a ratio between 1:5 and 1:20. For membrane preparation the culture medium was removed and the cells were washed with PBS and scraped off T75 flasks in ice-cold hypotonic buffer (5 mM Tris HCl, 2 mM EDTA, pH 7.4). The cell suspension was homogenized with Polytron and the homogenate was spun for 10 min at 1,000×g. The supernatant was then centrifuged for 30 min at 100,000×g. The membrane pellet was resuspended in 50 mM Tris HCl buffer pH 7.4 (for A3 adenosine receptors: 50 mM Tris HCl, 10 mM MgCl2, 1 mM EDTA) and incubated with 3 UI/ml of Adenosine deaminase for 30 min at 37° C. Then the suspension was frozen at −80° C. HEK 293 cells transfected with the human recombinant A2B adenosine receptor were obtained from Receptor Biology, Inc. (Beltsville, Md., USA).
Binding of [^3H]-SCH 58261 to CHO cells transfected with the human recombinant A2A adenosine receptors (50 μg of protein/assay) was performed using 0.2 ml 50 mM Tris HCl buffer, 10 mM MgCl2 pH 7.4 and at least 6-8 different concentrations of antagonists studied for an incubation time of 30 min at 25° C.

[4] = molecular target: T4, human hA2B receptors (Homo sapiens, UniProt P29275); assay: [^3H] DPCPX binding to human hA2B receptors expressed in HEK293 cells (antagonist radioligand)
T4 construct: host or cells: HEK 293 cells
T4 sequence (P29275 1-332): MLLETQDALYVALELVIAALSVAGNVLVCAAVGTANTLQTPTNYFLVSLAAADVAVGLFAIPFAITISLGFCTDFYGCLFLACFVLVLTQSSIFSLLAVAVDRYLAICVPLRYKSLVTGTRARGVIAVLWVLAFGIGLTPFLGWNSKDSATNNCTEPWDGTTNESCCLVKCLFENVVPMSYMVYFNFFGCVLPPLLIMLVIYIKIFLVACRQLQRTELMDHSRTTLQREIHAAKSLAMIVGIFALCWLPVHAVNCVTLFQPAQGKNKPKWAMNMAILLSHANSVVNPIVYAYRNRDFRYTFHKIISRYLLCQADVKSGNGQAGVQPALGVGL
Description: as §1
Competition experiments of [^3H]-DPCPX to HEK-293 cells transfected with the human recombinant A^2B adenosine receptor were performed for 60 min at 25° C. in 0.1 ml of 50 mM Tris HCl buffer, 10 mM MgCl2, 1 mM EDTA, 0.1 mM benzamidine pH 7.4, 2 IU/ml adenosine deaminase containing 34 nM [^3H]-DPCPX, diluted membranes (20 μg of protein/assay) and at least 6-8 different concentrations of selected compounds.

[5] = molecular target: T5, human A3 receptors (Homo sapiens, UniProt P0DMS8); assay: [^3H] MRE3008F20 binding to human A3 receptors expressed in CHO cells (antagonist radioligand)
T5 construct: expressed in transfected cells; host or cells: CHO cells
T5 sequence (P0DMS8 1-318): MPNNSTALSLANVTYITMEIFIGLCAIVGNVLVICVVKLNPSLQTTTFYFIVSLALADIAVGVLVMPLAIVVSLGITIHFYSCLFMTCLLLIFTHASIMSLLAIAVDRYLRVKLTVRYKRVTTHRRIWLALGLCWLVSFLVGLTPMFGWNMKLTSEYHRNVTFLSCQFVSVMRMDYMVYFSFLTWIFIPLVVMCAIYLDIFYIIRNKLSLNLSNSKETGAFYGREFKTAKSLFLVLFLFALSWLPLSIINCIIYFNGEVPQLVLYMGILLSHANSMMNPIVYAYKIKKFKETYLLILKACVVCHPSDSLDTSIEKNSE
Description: as §1
Binding of [^3H]-MRE 3008F20 to CHO cells transfected with the human recombinant A3 adenosine receptors was performed according to Varani et al., 2000. Competition experiments were carried out in duplicate in a final volume of […] in test tubes containing 1 nM [^3H]-MRE 3008F20, 50 mM Tris HCl buffer, 10 mM MgCl2, 1 mM EDTA pH 7.4 and 100 μl of diluted membranes (50 μg of protein/assay) and at least 8-10 different concentrations of examined antagonists. Incubation time was 120 min at 4° C., according to the results of previous time-course experiments.

[6] = molecular target: T6, human A1 adenosine receptors (Homo sapiens, UniProt P30542); assay: Displacement of [^3H]CHA binding, human A1 adenosine receptors in CHO cells (agonist radioligand)
T6 sequence (P30542 1-326): T2 sequence (P30542 1-326)

[7] = molecular target: T7, human A3 adenosine receptors (Homo sapiens, UniProt P0DMS8)
T7 sequence (P0DMS8 1-318): T5 sequence (P0DMS8 1-318)

[8] = human A2A, CHO cells, [^3H]CGS21680, read-out: Ki(A2A). Displacement of [^3H]CGS21680 binding to human A2A adenosine receptors exp. in CHO cells.
[9] = human A1, CHO cells, antagonist radioligand, read-out: [^3H] DPCPX binding to human A1 receptors expressed in CHO cells Ki
[10] = human A2A, CHO cells, antagonist radioligand, read-out: [^3H] SCH58261 binding to human A2A receptors expressed in CHO cells Ki
[11] = human A2B, HEK293 cells, antagonist radioligand, read-out: [^3H] DPCPX binding to human hA2B receptors expressed in HEK293 cells Ki
[12] = human A3, CHO cells, antagonist radioligand, read-out: [^3H] MRE3008F20 binding to human A3 receptors expressed in CHO cells Ki

T1 sequence (P29274 whole entry): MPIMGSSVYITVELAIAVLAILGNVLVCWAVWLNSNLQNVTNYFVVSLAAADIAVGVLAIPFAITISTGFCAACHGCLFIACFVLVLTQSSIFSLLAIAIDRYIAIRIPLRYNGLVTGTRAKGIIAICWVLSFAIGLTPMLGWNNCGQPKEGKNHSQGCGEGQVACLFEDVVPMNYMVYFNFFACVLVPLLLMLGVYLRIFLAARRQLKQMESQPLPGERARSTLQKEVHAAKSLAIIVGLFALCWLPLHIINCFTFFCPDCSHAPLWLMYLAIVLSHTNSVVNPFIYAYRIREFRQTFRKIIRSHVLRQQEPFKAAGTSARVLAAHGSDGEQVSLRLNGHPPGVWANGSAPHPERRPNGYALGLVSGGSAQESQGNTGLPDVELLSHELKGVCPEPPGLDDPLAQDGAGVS
T3 sequence (P29274 whole entry): as above

With `CCCCCNS(=O)(=O)c1ccc(NC(=O)Nc2ncnc3c2ncn3[C@@H]2O[C@H](C(=O)NCC)[C@@H](O)[C@H]2O)cc1` [Compound 87, 1-Deoxy-1-[6-[[[[4-[N-(pentyl)aminosulfonyl]phenyl]-amino]carbonyl]amino]-9H-purin-9-yl]-N-ethyl-β-D-ribofuranuronamide] the Ki [1, 8] was over 1000 nM, the Ki [2, 9] was over 1000 nM and the Ki [3, 10] was over 1000 nM. The Ki [4, 11] was over 1000 nM, the Ki [5, 12] was 886 nM and the melting point was 199 °C. For the same compound, the Ki [6] was 445 nM, the Ki [7] was 80 nM and the A1/A3 ([7]; ratio Ki(A1)/Ki(A3), agonist radioligands) was 5.56.

In the case of `CCNC(=O)[C@H]1O[C@@H](n2cnc3c(NC(=O)Nc4ccc(S(=O)(=O)N5CCCC5)cc4)ncnc32)[C@H](O)[C@@H]1O` [Compound 90, 1-Deoxy-1-[6-[[[[4-[(pyrrolidin-1-yl)sulfonyl]phenyl]amino]carbonyl]amino]-9H-purin-9-yl]-N-ethyl-β-D-ribofuranuronamide], the Ki [1, 8] is reported as over 1000 nM, the Ki [3, 10] is reported as over 1000 nM and the Ki [4, 11] is reported as over 1000 nM. For the same compound, the Ki [5, 12] was 100 nM, the melting point was 204 to 205 °C and the Ki [7] was 22 nM.

Compound `CCNC(=O)[C@H]1O[C@@H](n2cnc3c(NC(=O)Nc4ccc(S(=O)(=O)Nc5ccc(OC)cc5)cc4)ncnc32)[C@H](O)[C@@H]1O` [Compound 88, 1-Deoxy-1-[6-[[[[4-[N-(4-methoxyphenyl)aminosulfonyl]phenyl]-amino]carbo-nyl]amino]-9H-purin-9-yl]-N-ethyl-β-D-ribofuranuronamide] has a Ki [1, 8] of over 1000 nM, a Ki [2, 9] of over 1000 nM and a Ki [3, 10] of over 1000 nM. For the same compound, the Ki [4, 11] was over 1000 nM and the Ki [6] was 280 nM.

With `CCNC(=O)[C@H]1O[C@@H](n2cnc3c(NC(=O)Nc4ccc(S(=O)(=O)NC5CCCC5)cc4)ncnc32)[C@H](O)[C@@H]1O` [Compound 95, 1-Deoxy-1-[6-[[[[4-[N-(cyclopentyl)aminosulfonyl]phenyl]-amino]carbonyl]amino]-9H-purin-9-yl]-N-ethyl-β-D-ribofuranuronamide] the Ki [1, 8] was over 1000 nM, the Ki [2, 9] was over 1000 nM and the Ki [3, 10] was over 1000 nM. For the same compound, the Ki [4, 11] was over 1000 nM, the Ki [5, 12] was 140 nM and the Ki [6] was 415 nM. It also gave a Ki [7] of 24 nM.

With `C=CCN(C)S(=O)(=O)c1ccc(NC(=O)Nc2ncnc3c2ncn3[C@@H]2O[C@H](C(=O)NCC)[C@@H](O)[C@H]2O)cc1` [Compound 96, 1-Deoxy-1-[6-[[[[4-[N-(allyl)-N-(methyl)amino-sulfonyl]phenyl]amino]carbonyl]amino]-9H-purin-9-yl]-N-ethyl-β-D-ribofuranuronamide] the Ki [1, 8] was over 1000 nM, the Ki [3, 10] was over 1000 nM and the Ki [4, 11] was over 1000 nM. For the same compound, the Ki [5, 12] was 50 nM, the melting point was 181 to 185 °C and the Ki [7] was 10 nM.

`CCNC(=O)[C@H]1O[C@@H](n2cnc3c(NC(=O)Nc4ccc(S(=O)(=O)NC5CCCCC5)cc4)ncnc32)[C@H](O)[C@@H]1O` [Compound 94, 1-Deoxy-1-[6-[[[[4-[N-(cyclohexyl)aminosulfonyl]phenyl]-amino]carbonyl]amino]-9H-purin-9-yl]-N-ethyl-β-D-ribofuranuronamide] gave a Ki [1, 8] of over 1000 nM, a Ki [2, 9] of over 1000 nM and a Ki [3, 10] of over 1000 nM. For the same compound, the Ki [4, 11] was over 1000 nM, the melting point was 179 to 183 °C and the Ki [6] was 350 nM.

`CCNC(=O)[C@H]1O[C@@H](n2cnc3c(NC(=O)Nc4ccc(S(=O)(=O)NCc5ccccc5)cc4)ncnc32)[C@H](O)[C@@H]1O` [Compound 86, 1-Deoxy-1-[6-[[[[4-[N-(benzyl)aminosulfonyl]phenyl]amino]-carbonyl]amino]-9H-purin-9-yl]-N-ethyl-β-D-ribofuranuronamide] gave a Ki [1, 8] of over 1000 nM, a Ki [2, 9] of over 1000 nM and a Ki [3, 10] of over 1000 nM. The Ki [4, 11] was over 1000 nM and the Ki [6] was 300 nM.

Compound `CCNC(=O)[C@H]1O[C@@H](n2cnc3c(NC(=O)Nc4ccc(S(=O)(=O)N(CCCl)CCCl)cc4)ncnc32)[C@H](O)[C@@H]1O` [Compound 91, 1-Deoxy-1-[6-[[[[4-[N,N-bis(2-chloroethyl)aminosulfonyl]phenyl]-amino]carbonyl]amino]-9H-purin-9-yl]-N-ethyl-β-D-ribofuranuronamide] has a Ki [1] of over 1000 nM, a Ki [2] of over 1000 nM and a Ki [3] of over 1000 nM. The Ki [4] was over 1000 nM, the Ki [5] was 120 nM and the Ki [6] was 730 nM. It also gave a Ki [7] of 23 nM.

For `CCNC(=O)[C@H]1O[C@@H](n2cnc3c(NC(=O)Nc4ccc(S(=O)(=O)N5CCCCC5)cc4)ncnc32)[C@H](O)[C@@H]1O` [Compound 83, 1-Deoxy-1-[6-[[[[4-[(piperidin-1-yl)sulfonyl]phenyl]amino]carbonyl]amino]-9H-purin-9-yl]-N-ethyl-β-D-ribofuranuronamide], the Ki [1, 8] was over 1000 nM, the Ki [3, 10] was over 1000 nM and the Ki [4, 11] was over 1000 nM. It also gave a melting point of 176 to 178 °C.
